Source: patent publication US20130287705A1, “METHOD OF TREATING MUCOSAL INFLAMMATION” (MCMASTER UNIVERSITY, priority 2010, published 2013)

Assays:
DSS and DNBS colitis = conditions: PCPA treated mice after induction of colitis; cited from earlier work
DSS-induced colitis = DSS-induced colitis in mice treated with 5-HT7 antagonist; format: in vivo, C57BL/6 mice
splenic dendritic cells = test: Ex vivo culture of CD11c positive splenic DCs from bone-marrow reconstituted mice post-DSS; format: cell-based; conditions: LPS and serotonin vs LPS only
Protocol: Mice were sacrificed by cervical dislocation and spleens were excised and placed in Spleen Dissociation Medium (STEMCELL Technologies) and incubated for 30 min at room temperature. They were then strained through a 70-μm nylon mesh filter (BD Falcon) and washed with PBS supplemented with 2% fetal bovine serum (FBS) and 1 mmol/L EDTA. Splenic DCs were isolated using a CD11c^+ isolation kit (EasySep®, STEMCELL Technologies) according to the manufacturer's guidelines.
DCs isolated using CD11c positive selection were incubated at 1×10^6 cells per mL for 24 hours at 37° C. with or without 100 ng/mL LPS (Sigma-Aldrich) in RPMI 1640 supplemented with 10% FBS, 100 U/mL penicillin, 100 μg/mL streptomycin, and 50 μM 2-mercaptoethanol (Invitrogen Life Technologies). Supernatents were collected after 24 hours and analyzed for cytokine levels using ELISA kits for murine IL-12p40, IL-1β, and IL-6 (Quantikine Murine; R&D Systems, Minneapolis, Minn., USA).
6-8 week old male recipient C57BL/6 mice (Taconic) were irradiated with two doses of 5.5 Gy 48 hours apart administered via a ^137Cs γ-irradiation source (Gamma Cell 40; Nordian, Kanata, ON, Canada). Bone marrow cells (no fewer than 5×10^4) were harvested from femurs and tibiae of donor mice (5-HT7^+/+) and 5-HT7^−/− and given via tail vein injection to recipient mice within two hours of the second irradiation exposure. […]

dendritic cells = dendritic cells from TPH1-/- mice in DSS-colitis, stimulation with 5-HT; cited from earlier work

SMILES: NC(Cc1ccc(Cl)cc1)C(=O)O (racemic) [PCPA, para-chloro-D, L-phenylalanine]
- onset of colitis (DSS and DNBS colitis): Delayed onset
- pro-inflammatory cytokine production (DSS and DNBS colitis): down-regulation
- severity of colitis (DSS and DNBS colitis): decreased severity

SMILES: CC1CCN(CC[C@H]2CCCN2S(=O)(=O)c2cccc(O)c2)CC1.Cl [SB-269970, (2R)-1-[(3-Hydroxyphenyl)sulfonyl]-2-[2-(4-methyl-1-piperidinyl)ethyl]pyrrolidinehydrochloride]
- colitis severity (macroscopic damage) (DSS-induced colitis; 40 mg/kg i.p., day 5 post-DSS induction, compared to controls): significantly lower
- histological scores (DSS-induced colitis; 40 mg/kg i.p., day 5 post-DSS induction, compared to controls, FIG. 1C): significantly less severe
- myeloperoxidase (MPO) activity in colonic tissue (DSS-induced colitis; 40 mg/kg i.p., post-DSS, FIG. 2A): significantly lower
- production of IL-1β in colonic tissue (DSS-induced colitis; 40 mg/kg i.p., post-DSS, FIG. 2B): lower production
- production of TNF-α in colonic tissue (DSS-induced colitis; 40 mg/kg i.p., post-DSS, FIG. 2C): lower production
- production of IL-6 in colonic tissue (DSS-induced colitis; 40 mg/kg i.p., post-DSS, FIG. 2D): lower production
- Clinical disease activity scores (fecal blood and consistency, and weight loss) (DSS-induced colitis; 40 mg/kg intraperitoneally, days 4 and 5 post-DSS administration, vs vehicle (saline), FIG. 1A): significantly lower

SMILES: NCCc1c[nH]c2ccc(O)cc12 [serotonin, 5-hydroxytryptamine]
- IL-1β production (splenic dendritic cells; DCs from mice reconstituted with wild-type BMC, FIG. 9): significantly up-regulated
- increase in IL-1β production (splenic dendritic cells; DCs from spleens of transgenic mice (5-HT7-/- BMC)): not seen
- IL-12 production (dendritic cells): restored
